# Measured values from ChEMBL document CHEMBL1201862, “PubChem BioAssay data set” (2004).
# Calls of active or inactive are those of the source. Cut-off read from the data, not from the text of the source, for most assays here: actives have a measured EC50 and inactives only a lower limit.
# Tests used:
# [1] = cytotoxicity in OVCAR8 ovarian cancer cells, dose response, PAX8 project, cell-based, plate reader, dry powder samples (AID 743197); type: functional; conditions: OVCAR-8
# [2] = NIH:OVCAR-3 ovarian cancer cell cytotoxicity, dose response, PAX8 inhibitor project, plate reader, dry powder samples (AID 743044); type: functional, cell-based
# [3] = non-specific cell cytotoxicity, dose response, cytotoxicity control for PAX8 inhibitor project, plate reader, dry powder samples (AID 743021); type: functional, cell-based
# Paired box protein Pax-8 = Paired box protein Pax-8 (Homo sapiens, UniProt Q06710); assay: inhibitors of PAX8-driven TPO luciferase reporter, dose response, RMG-I cells, cherry-pick (AID 687027); type: functional, cell-based;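 note: luciferase reporter driven by Pax8 target thyroperoxidase promoter measured by SteadyGlo luminescence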
# Hexokinase = biological target: T1, Hexokinase (Trypanosoma brucei, UniProt Q38C41); assay: Confirmation assay for inhibitors of Trypanosoma brucei hexokinase 1-Analogue-first series. [Related pubchem assays (depositor defined):AID1430, AID1632, AID2516, AID2560, AID2579, AID2600, AID449725, AID492951]; type: functional
# T1 sequence (Q38C41 whole entry): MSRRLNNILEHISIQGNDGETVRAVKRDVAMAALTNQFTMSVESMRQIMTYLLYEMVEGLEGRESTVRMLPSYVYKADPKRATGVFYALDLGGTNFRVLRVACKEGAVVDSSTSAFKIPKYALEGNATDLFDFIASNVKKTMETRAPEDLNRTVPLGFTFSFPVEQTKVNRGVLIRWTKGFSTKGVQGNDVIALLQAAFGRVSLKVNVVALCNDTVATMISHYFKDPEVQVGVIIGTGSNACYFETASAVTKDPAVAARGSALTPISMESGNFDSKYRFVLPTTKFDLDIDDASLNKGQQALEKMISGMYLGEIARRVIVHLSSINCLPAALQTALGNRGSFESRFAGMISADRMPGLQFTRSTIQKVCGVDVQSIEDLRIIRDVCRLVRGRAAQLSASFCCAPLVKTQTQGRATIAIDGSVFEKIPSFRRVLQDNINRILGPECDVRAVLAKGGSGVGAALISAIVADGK
# [4] = biological target: T2, Ubiquitin-conjugating enzyme E2 N (Homo sapiens, UniProt P61088); type: functional;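 note: Dose-response confirmation in a TR-FRET assay detecting UBC13-driven polyubiquitin chain formation, inhibition measured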
# T2 sequence (P61088 whole entry): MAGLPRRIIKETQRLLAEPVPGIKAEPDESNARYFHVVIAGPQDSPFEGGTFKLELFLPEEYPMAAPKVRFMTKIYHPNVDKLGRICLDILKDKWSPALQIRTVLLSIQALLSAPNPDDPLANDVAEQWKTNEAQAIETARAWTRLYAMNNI
# H9c2 = assay: cells; type: functional, cell-based; conditions: Rattus norvegicus, H9c2, Myocardium;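 note: confirmatory concentration-response retest of ultra-high-throughput screening hits for modulation of myocardial damage; cell death induced by hydrogen peroxide oxidative stress; compound pretreatment for 60 min then peroxide exposure for 2 h; potency is for protecting the cells against peroxide damage rather than for killing them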
# BJ [5] = assay: cells; type: functional, cell-based; conditions: Homo sapiens
# [6] = cytotoxicity toward DRD oncogenic fibroblasts, dose response, cell-based, non-viral oncogenic, luminescence (AID 1934); type: functional; conditions: Homo sapiens
# BJ [7] = assay: cytotoxicity toward BJ-TERT-LT-ST fibroblasts, dose response, cell-based, RAS-independent, luminescence (AID 1935); type: functional; conditions: Homo sapiens;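 note: BJ fibroblasts immortalized with TERT plus LT and ST oncogenes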
# [8] = cytotoxicity in HEK-293T cells, dose response, cytotoxicity control for TCR NF-kB inhibitor project, luminescence, T-cell screen hits (AID 489026); type: functional, cell-based;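 note: cells exposed to compound about 14 hours before the viability readout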
# BJ [9] = assay: cytotoxicity toward BJ-TERT fibroblasts, dose response, cell-based, RAS-independent, luminescence (AID 1933); type: functional; conditions: Homo sapiens
# [10] = inhibitors of intracellular T. cruzi replication, confirmation, NIH3T3 host cells, beta-gal luminescence (AID 2044); type: functional, cell-based;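 note: intracellular parasites grown in NIH/3T3 mouse fibroblasts as host cells; luminescent beta-galactosidase reporter signal from transgenic T. cruzi replicating inside host cells; inhibitors lower the luminescence signal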
# Streptococcus = assay: Group A Streptococcus viability loss, dose response, counter-screen for streptokinase expression inhibitor project, luminescence, BacTiterGlo (AID 1915); type: functional, organism-based;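 note: potency for reduction of bacterial viability or growth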
# [11] = cytotoxicity toward NIH3T3 fibroblasts, dose response, counter-screen, cell-based, ATP luminescence, mouse fibroblasts (AID 2010); type: functional;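 note: cells exposed to compound for about 90 hours before reading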
# BJ [12] = assay: cytotoxicity toward Ras-transformed BJeLR fibroblasts, dose response, cell-based, alamar blue fluorescence, cherrypicked samples (AID 2631); type: functional; conditions: Homo sapiens;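 note: confirmatory dose-response assay in RAS-dependent BJ fibroblasts engineered with TERT, LT and ST, with cytotoxicity read by fluorescence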
# [13] = tested on: Streptococcus sp. 'group A'; assay: growth inhibition of control SK(-) GAS strain, dose response, counter-screen for streptokinase expression inhibitor project, luminescence, kanamycin, BacTiterGlo, confirmation (AID 1900); type: functional, organism-based
# H4 = assay: Luminescence Cell-Based Dose Response HTS to Identify Activators of 5'UTR Stem-Loop Driven Prion Protein mRNA Translation in H4 Neuroglioblastoma Cells. [Related pubchem assays: 1829 (Project Summary), 1814 (Primary HTS)]; type: functional; conditions: Homo sapiens
# [14] = biological target: T3, RNA-binding protein pos-1 (Caenorhabditis elegans, UniProt G5EF15); assay: inhibitors of POS-1/mex-3 RNA binding, dose response, biochemical, fluorescence polarization (AID 1964);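 note: purified POS-1 fused to maltose binding protein made in E. coli; potency of compounds blocking POS-1 binding to fluorescent RNA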
# T3 sequence (G5EF15 whole entry): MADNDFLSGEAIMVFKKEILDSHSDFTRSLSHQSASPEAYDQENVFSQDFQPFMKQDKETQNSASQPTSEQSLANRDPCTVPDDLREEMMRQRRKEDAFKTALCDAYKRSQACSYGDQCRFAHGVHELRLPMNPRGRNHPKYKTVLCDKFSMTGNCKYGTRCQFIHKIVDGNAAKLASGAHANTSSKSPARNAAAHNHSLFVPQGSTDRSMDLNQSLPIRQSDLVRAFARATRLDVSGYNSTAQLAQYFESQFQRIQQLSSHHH
# [15] = Luminescence Cell-Based Dose Response HTS to Identify Activators of Luciferase Translation or Activity in H4 […] Cells. [Related pubchem assays: 1829 (Project Summary), 1814 (Primary HTS)]; type: functional
# [16] = biological target: T4, Zinc finger protein mex-5 (Caenorhabditis elegans, UniProt Q9XUB2); assay: MEX-5/TCR-2 RNA interaction inhibitors, dose response, biochemical, C. elegans, fluorescence polarization (AID 1960)
# T4 sequence (Q9XUB2 whole entry): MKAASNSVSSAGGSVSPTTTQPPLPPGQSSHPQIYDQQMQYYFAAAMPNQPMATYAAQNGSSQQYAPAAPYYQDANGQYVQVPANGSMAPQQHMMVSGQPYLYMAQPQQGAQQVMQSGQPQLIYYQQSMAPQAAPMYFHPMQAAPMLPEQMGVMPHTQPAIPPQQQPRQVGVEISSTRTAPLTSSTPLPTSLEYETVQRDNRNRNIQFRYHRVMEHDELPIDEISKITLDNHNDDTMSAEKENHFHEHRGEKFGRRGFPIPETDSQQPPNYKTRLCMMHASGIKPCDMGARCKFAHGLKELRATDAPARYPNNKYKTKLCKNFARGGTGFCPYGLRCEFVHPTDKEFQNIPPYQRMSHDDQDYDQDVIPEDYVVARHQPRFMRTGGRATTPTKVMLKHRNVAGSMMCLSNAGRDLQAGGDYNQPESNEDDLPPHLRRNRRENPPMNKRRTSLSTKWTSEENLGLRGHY
# [17] = biological target: Heat shock protein HSP 90-alpha (Homo sapiens, UniProt P07900); type: functional, organism-based
# [18] = Luminescence Cell-Based Dose Confirmation HTS to Identify Activators of 5'UTR Stem-Loop Driven Alpha-Synuclein mRNA Translation in H4 Neuroglioblastoma Cells. [Related pubchem assays: 1829 (Project Summary), 1814 (Primary HTS)]; type: functional
# [19] = biological target: T5, Microphthalmia-associated transcription factor (Homo sapiens, UniProt O75030); assay: TRPM1 promoter luciferase signal decrease, dose response, MITF inhibitor project, cell-based, SK-MEL-5, cherry-picked, set 3 (AID 493073); type: functional
# T5 sequence (O75030 whole entry): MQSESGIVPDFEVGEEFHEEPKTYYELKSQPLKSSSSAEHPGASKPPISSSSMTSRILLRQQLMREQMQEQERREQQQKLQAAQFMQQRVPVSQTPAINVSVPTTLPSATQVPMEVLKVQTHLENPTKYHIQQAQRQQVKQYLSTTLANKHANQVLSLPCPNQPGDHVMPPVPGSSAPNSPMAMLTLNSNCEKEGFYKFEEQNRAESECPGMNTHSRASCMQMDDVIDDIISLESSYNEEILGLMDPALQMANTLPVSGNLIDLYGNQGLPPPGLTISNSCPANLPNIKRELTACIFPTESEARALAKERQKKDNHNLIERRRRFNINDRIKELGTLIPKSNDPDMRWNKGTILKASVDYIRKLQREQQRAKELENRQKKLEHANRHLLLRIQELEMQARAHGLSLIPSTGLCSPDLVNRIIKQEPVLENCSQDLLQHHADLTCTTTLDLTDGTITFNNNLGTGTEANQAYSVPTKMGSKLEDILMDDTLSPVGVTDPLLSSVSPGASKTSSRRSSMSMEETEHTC
# [20] = biological target: T6, Heat shock factor protein 1 (Mus musculus, UniProt P38532); assay: HSF1 potentiators in luciferase reporter cells, confirmation, cell-based, NIH3T3, luminescence, dose retest (AID 435004); type: functional;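 note: stress induced by proteasome inhibitor MG132 added 30 min after compound; luciferase reporter driven by HSF1 response element in NIH3T3 cells; actives raise luminescence as potentiators of the MG132 stress response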
# T6 sequence (P38532 whole entry): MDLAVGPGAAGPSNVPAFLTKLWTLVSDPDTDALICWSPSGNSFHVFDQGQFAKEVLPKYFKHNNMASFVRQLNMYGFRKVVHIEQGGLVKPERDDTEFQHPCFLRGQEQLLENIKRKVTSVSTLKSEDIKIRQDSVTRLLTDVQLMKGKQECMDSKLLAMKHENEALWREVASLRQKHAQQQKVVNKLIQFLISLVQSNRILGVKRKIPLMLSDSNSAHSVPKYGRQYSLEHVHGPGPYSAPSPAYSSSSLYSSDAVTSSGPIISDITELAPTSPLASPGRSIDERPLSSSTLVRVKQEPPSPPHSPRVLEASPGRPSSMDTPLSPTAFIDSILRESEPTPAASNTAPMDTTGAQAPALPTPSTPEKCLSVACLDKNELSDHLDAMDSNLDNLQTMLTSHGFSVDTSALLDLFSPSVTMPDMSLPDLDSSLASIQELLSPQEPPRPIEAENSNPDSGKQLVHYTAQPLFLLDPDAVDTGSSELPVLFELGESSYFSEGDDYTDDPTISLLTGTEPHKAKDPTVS
# [21] = C. albicans growth with fluconazole, confirmation, fluorescence, retest (AID 2467); type: functional, cell-based
# [22] = NIH-3T3 fibroblast cytotoxicity, dose response, cytotoxicity control, cell-based, fluorescence, Alamar Blue, secondary assay (AID 2327); type: functional;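 note: NIH-3T3 mouse fibroblasts cultured with fluconazole at 8 µg/mL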
# [23] = growth suppression of PTEN-null colon cells, dose response, cell-based, HCT116 PTEN knockout (AID 1047); type: functional;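 note: HCT116 colon tumor cells with PTEN knocked out; cells exposed to compound for 60 hours before readout; potency for loss of cell viability measured by luminescence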
# [24] = growth suppression of beta-catenin-knockout colon cells, dose response, cell-based, HCT116, human colon tumor (AID 1045); type: functional;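 note: HCT116 colon tumor cells with beta catenin knocked out; cells exposed to compound for 60 hours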
# Paired box protein Pax-8, sequence (Q06710 whole entry): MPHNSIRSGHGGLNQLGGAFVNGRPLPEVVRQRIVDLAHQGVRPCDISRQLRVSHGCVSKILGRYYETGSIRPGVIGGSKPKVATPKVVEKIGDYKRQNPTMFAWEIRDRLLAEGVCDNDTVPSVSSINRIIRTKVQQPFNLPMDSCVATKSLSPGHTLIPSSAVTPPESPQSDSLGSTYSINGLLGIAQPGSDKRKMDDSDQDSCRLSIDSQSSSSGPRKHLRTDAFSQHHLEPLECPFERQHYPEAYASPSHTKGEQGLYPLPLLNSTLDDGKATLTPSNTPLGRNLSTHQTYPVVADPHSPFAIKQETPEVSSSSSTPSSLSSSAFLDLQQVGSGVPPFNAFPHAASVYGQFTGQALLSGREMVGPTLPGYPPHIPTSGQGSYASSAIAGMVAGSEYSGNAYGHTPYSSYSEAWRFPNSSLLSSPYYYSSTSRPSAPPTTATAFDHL
compound,measurement,setting,value
C[C@@H]1CN([C@@H](C)CO)S(=O)(=O)c2ccc(C#Cc3ccccc3F)cc2O[C@H]1CN(C)C(=O)Cc1ccccc1,AC50,[1],37.6 µM (active)
same,AC50,[2],14.5 µM (active)
same,AC50,[3],25.5 µM (active)
same,AC50,Paired box protein Pax-8,5.88 µM (active)
O=c1c2ccccc2on1-c1ccccc1,IC50,Hexokinase,> 25 µM (inactive)
COc1ccccc1NC(=O)COC(=O)C12CC3CC(CC(Br)(C3)C1)C2,IC50,[4],> 20 µM (inactive)
CCCC(c1nnnn1C(C)(C)CC)N(CCCO)Cc1cc2cc(C)cc(C)c2nc1O (stereo not drawn),IC50,H9c2,38.7 µM (inactive)
O=C(Nc1cc(Cl)ccc1C(=O)O)c1ccncc1,IC50,Hexokinase,> 25 µM (inactive)
C[C@H]1CCCCO[C@@H](CN(C)Cc2ccc3c(c2)OCO3)[C@@H](C)CN([C@@H](C)CO)C(=O)c2cc(NC(=O)Nc3ccc(F)cc3)ccc2O1,AC50,[2],31.2 µM (active)
same,AC50,Paired box protein Pax-8,22 µM (active)
CC(Oc1ccc(Cl)cc1Cl)C(=O)Nc1ccncc1 (stereo not drawn),EC50,BJ [5],23.9 µM (active)
same,EC50,[6],> 150 µM (not active)
same,EC50,BJ [7],> 150 µM (not active)
same,IC50,[8],> 80 µM (inactive)
same,EC50,BJ [9],> 150 µM (not active)
CC1(C)N=C(N)N=C(N)N1c1ccc(Oc2ccc(Cl)cc2)c(Cl)c1,EC50,[10],0.177 µM (active)
same,EC50,Streptococcus,0.085 µM (active)
same,EC50,[11],14.3 µM (active)
same,EC50,BJ [12],> 133 µM (inactive)
same,EC50,[13],< 0.06 µM (active)
O=C(Nc1ccc(S(=O)(=O)Nc2ccc(F)cc2)cc1)c1ccc(CN2CCOCC2)cc1,IC50,[8],> 80 µM (inactive)
O=C(/C=C/N1CCOCC1)c1ccc(-c2ccccc2)cc1,EC50,H4,57.7 µM (active)
same,EC50,[14],> 300 µM (not active)
same,EC50,[15],36.8 µM (active)
same,EC50,[16],> 300 µM (not active)
same,AC50,[17],1.68 µM (active)
same,EC50,[18],3.53 µM (active)
Clc1cccc(Cl)c1/C=N/Nc1c(Cl)cncc1Cl,EC50,BJ [5],> 150 µM (inconclusive)
same,EC50,[6],4.33 µM (active)
same,EC50,BJ [7],76.6 µM (active)
same,IC50,[8],> 80 µM (inactive)
same,EC50,BJ [9],13.7 µM (active)
O=S1(=O)CCC(NC(=S)SCc2ccccc2Br)C1 (stereo not drawn),AC50,[19],25.6 µM (active)
O=c1c2ccc(Br)cc2sn1-c1ccccc1,IC50,Hexokinase,3.61 µM (active)
C[C@H](CO)N1C[C@H](C)[C@H](CN(C)Cc2ccc(C(F)(F)F)cc2)OCCCC[C@H](C)Oc2ccc(NC(=O)CCC(F)(F)F)cc2C1=O,AC50,[1],63.8 µM (active)
same,AC50,[2],14.8 µM (active)
same,AC50,Paired box protein Pax-8,5.89 µM (active)
O=C(Nc1ccccc1)n1sc2ccccc2c1=O,IC50,Hexokinase,> 25 µM (inactive)
CCOC(=O)C(=Cc1cc(=O)c(OC)co1)C(=O)OCC,EC50,[20],15.2 µM (active)
same,EC50,BJ [5],7.57 µM (inconclusive)
same,EC50,[6],4.24 µM (inconclusive)
same,EC50,BJ [7],4.28 µM (active)
same,EC50,BJ [12],0.592 µM (active)
same,EC50,[21],0.367 µM (active)
same,EC50,[22],8.28 µM (inconclusive)
same,EC50,[23],3.55 µM (active)
same,EC50,BJ [9],8.75 µM (active)
same,EC50,[24],2.93 µM (active)
COc1cc(-c2[nH]c(C(=O)NC3CCN(Cc4ccccc4)CC3)cc3c4ccccc4nc2-3)cc(OC)c1OC,EC50,[10],0.125 µM (active)
same,EC50,[11],5.61 µM (active)
same,IC50,[4],> 20 µM (inactive)
COc1ccccc1C(=O)Nc1cc(Cl)ccc1C(=O)O,IC50,Hexokinase,> 25 µM (inactive)
COCCCn1nc2c3c(ccc2c1O)C(=O)c1ccccc1C3=O,AC50,[19],8.86 µM (active)
